SMILES strings stand for the structures.

We go through 36 compounds from patent publication US10968193B2, “Antidiabetic bicyclic compounds” (Merck Sharp & Dohme Corp., priority 2014, dated 2021).

In the assay the target is T1, human GPR40 (Homo sapiens, UniProt O14842).
T1 construct: expressed in transfected cells; host or cells: HEK cells stably expressing the aequorin reporter
The assay is described as follows: Inositol Phosphate Turnover (IP1) Assay 3. It is filed as cell-based. The note with it: HEK cells stably expressing human GPR40. As to the method:
Human and mouse GPR40 stable cell-lines were generated in CHO cells stably expressing NFAT BLA (Beta-lactamase). A human GPR40 stable cell-line was generated in HEK cells stably expressing the aequorin expressing reporter. The expression plasmids were transfected using lipofectamine (Life Technologies) following manufacturer's instructions. Stable cell-lines were generated following drug selection.
Inositol Phosphate Turnover (IP1) Assay 3:
The assay was performed in 384-well format. HEK cells stably expressing human GPR40 were plated at 7500 cells per well in growth medium (DMEM/10% fetal calf serum). Cell plates were then incubated 16 hours at 37 degrees in a 5% CO2 incubator.
Measurement of Inositol Phosphate Turnover (IP) was performed using the CisBio IP-One kit (Part number 62IPAPEB). After the 16 hour incubation, the growth media was removed by centrifugation using the BlueWasher (AusWasher GUI Ver. v1.0.1.8) Protocol #21—“Light Dry” and 10 ul of stimulation buffer (prepared as described in the kit) was added to each well. In a separate plate, compounds were diluted in DMSO (200-fold over the final concentration in the assay well) and 50 nl was acoustically transferred to the appropriate well in the assay cell plate. The plates were then incubated for 60 minutes at 37 degrees in a 5% CO2 incubator. 10 ul of detection buffer (also prepared as described in the IP-One kit) was added to each well and the plates were incubated at rt for 60 minutes in the dark. The plates were then read in a Perkin Elmer EnVision or equivalent reader able to measure FRET. Fluorescent ratio of emission at 665 and 620 nm was then converted to IP1 concentration by back calculating from an IP1 standard curve prepared at the time of the assay. Data is normalized to % activity using a reference compound and EC50s determined using a standard 4-parameter fit.

T1 sequence (O14842 whole entry): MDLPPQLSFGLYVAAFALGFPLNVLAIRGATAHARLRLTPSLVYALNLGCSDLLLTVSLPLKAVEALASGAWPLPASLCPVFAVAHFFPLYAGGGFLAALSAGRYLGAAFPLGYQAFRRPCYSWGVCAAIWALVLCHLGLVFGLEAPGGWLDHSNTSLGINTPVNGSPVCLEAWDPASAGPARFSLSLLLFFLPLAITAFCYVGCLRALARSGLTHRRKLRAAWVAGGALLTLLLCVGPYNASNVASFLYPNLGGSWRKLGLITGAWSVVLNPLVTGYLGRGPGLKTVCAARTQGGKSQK

As for `COc1cc(-c2ccc(C3CCc4ccc([C@H](C5CC5)[C@H](C)C(=O)O)cc4O3)cc2CN2[C@H](C)CCC[C@@H]2C)ccn1` (stereo partly drawn) [Example 239], it took 1.1 nM to reach a half-maximal effect (EC50).

`CCN(CC)Cc1cc(C2CCc3ccc([C@H](C4CC4)[C@H](C)C(=O)O)c(F)c3O2)ccc1-c1cc(OC)ncc1F` (single isomer, unassigned) [Example 204] came in with an EC50 of 2.1 nM.

`COc1cc(-c2ccc(C3CCc4ccc([C@H](C5CC5)[C@H](C)C(=O)O)cc4O3)c(CN3CCC[C@@H]3C)c2)ccn1` (single isomer, unassigned) [Example 118b] registered an EC50 of 109 nM. Against the preceding compound, the EC50 is about 52-fold higher.

`COc1cc(-c2ccc(C3CCc4ccc([C@H](C5CC5)[C@H](C)C(=O)O)cc4O3)cc2CN2[C@H](C)CCC[C@@H]2C)c(F)cn1` (stereo partly drawn) [Example 259]: a half-maximal response (EC50) required 0.2 nM.

`COc1cc(-c2ccc(C3CCc4ccc([C@H](C5CC5)[C@H](C)C(=O)O)cc4O3)cc2CN2CCCCC23CC3)ccn1` (single isomer, unassigned) [Example 222] displayed an EC50 of 1.3 nM.

Turning to `COc1cc(-c2ccc(C3CCc4ccc([C@H](C5CC5)[C@H](C)C(=O)O)cc4O3)c(CN3[C@H](C)CC[C@@H]3C)c2)ccn1` (stereo partly drawn) [Example 122], the EC50 is 0.7 nM.

As for `CCN(Cc1cc(-c2ccnc(OC)c2)ccc1C1CCc2ccc([C@H](C3CC3)[C@H](C)C(=O)O)cc2O1)C(C)C` (mixture of isomers) [Example 113], the EC50 turned out to be 0.7 nM.

`COc1cc(-c2ccc(C3CCc4ccc([C@H](C5CC5)[C@H](C)C(=O)O)cc4O3)c(CN3CCCC[C@@H]3C)c2)c(F)cn1` (stereo partly drawn) [Example 131] yielded an EC50 of 0.09 nM.

On to `COc1cc(-c2ccc(C3CCc4ccc([C@H](C5CC5)[C@H](C)C(=O)O)cc4O3)cc2CN(C)C(C)(C)C)ccn1` (stereo partly drawn) [Example 288], for which the EC50 came to 21 nM. Compared with the last compound, the EC50 is about 230-fold higher.

`COc1cc(-c2ccc([C@H]3CCc4ccc([C@H](C5CC5)[C@H](C)C(=O)O)cc4O3)cc2CN2C[C@H]3C[C@H]3C2)c(F)cn1` [Example 138] displayed an EC50 of 0.3 nM.

Consider `COc1cc(-c2ccc(C3CCc4ccc([C@H](C5CC5)[C@H](C)C(=O)O)cc4O3)cc2CNC(C)(C)C)c(F)cn1` (stereo partly drawn) [Example 233], for which the EC50 turned out to be 42 nM.

`CCN(CC)Cc1cc(C2CCc3ccc([C@H](C4CC4)[C@H](C)C(=O)O)cc3O2)ccc1-c1cc(OC)ncc1C#N` (stereo partly drawn) [Example 291] returned an EC50 of 3.1 nM.

Compound `COc1cc(-c2ccc(C3CCc4ccc([C@H](C5CC5)[C@H](C)C(=O)O)cc4O3)cc2CN2[C@@H](C)CCC[C@@H]2C)ccn1` (stereo partly drawn) [Example 241] yielded an EC50 of 1.1 nM.

`COc1cc(-c2ccc(C3CCc4ccc([C@H](C5CC5)[C@H](C)C(=O)O)cc4O3)c(CN3CCCC[C@H]3C)c2)ccn1` (mixture of isomers) [Example 120]: the EC50 came to 0.7 nM.

Compound `COc1cc(-c2ccc(C3CCc4ccc([C@H](C5CC5)[C@H](C)C(=O)O)cc4O3)c(CN(C)C(C)(C)C)c2)c(F)cn1` (mixture of isomers) [Example 125] had an EC50 of 2.2 nM.

As for `CCOc1cc(-c2ccc(C3CCc4ccc([C@H](C5CC5)[C@H](C)C(=O)O)cc4O3)cc2CN2CCCC2)c(Cl)cn1` (single isomer, unassigned) [Example 217], a half-maximal effect (EC50) was put at 57 nM.

For `CCOc1cc(-c2ccc(C3CCc4ccc([C@H](C5CC5)[C@H](C)C(=O)O)cc4O3)c(CN3CCC[C@@H]3C)c2)c(F)cn1` (single isomer, unassigned) [Example 133], the EC50 was 0.8 nM.

`CCC1CCCN1Cc1cc(C2CCc3ccc([C@H](C4CC4)[C@H](C)C(=O)O)cc3O2)ccc1-c1cc(OC)ncc1F` (single isomer, unassigned) [Example 267b]: the EC50 was 0.1 nM. Compared with the last compound, the EC50 is about 8-fold lower.

In the case of `COc1cc(-c2ccc(C3CCc4ccc([C@H](C5CC5)[C@H](C)C(=O)O)cc4O3)cc2CN2CCCCC23CC3)c(C#N)cn1` (stereo partly drawn) [Example 293], the EC50 turned out to be 0.08 nM.

As to `COc1cc(-c2ccc(C3CCc4ccc([C@H](C5CC5)[C@H](C)C(=O)O)cc4O3)cc2CN2C[C@H]3CC[C@@H]2C3)c(F)cn1` (stereo partly drawn) [Example 269], the EC50 was determined as 6.2 nM.

With `COc1cc(-c2ccc(C3CCc4ccc([C@H](C5CC5)[C@H](C)C(=O)O)cc4O3)c(CN(C(C)C)C(C)C)c2)c(F)cn1` (mixture of isomers) [Example 126], the EC50 turned out to be 0.1 nM.

As for `CCN(Cc1cc(C2CCc3ccc([C@H](C4CC4)[C@H](C)C(=O)O)cc3O2)ccc1-c1cc(OC)ncc1F)C(C)(C)C` (stereo partly drawn) [Example 228], a half-maximal response (EC50) required 0.12 nM.

`CCN(CC)Cc1cc(C2CCc3ccc([C@H](C4CC4)[C@H](C)C(=O)O)c(F)c3O2)ccc1-c1cc(OC)ncc1F` (single isomer, unassigned) [Example 205] gave an EC50 of 2.4 nM. This EC50 lies about 20-fold higher than the previous one.

Take `COc1cc(-c2ccc(C3CCc4ccc([C@H](C5CC5)[C@H](C)C(=O)O)c(F)c4O3)cc2CN2CCC[C@@H]2C)c(F)cn1` (single isomer, unassigned) [Example 213]: the EC50 turned out to be 1.4 nM.

Consider `COc1cc(-c2ccc(C3CCc4ccc([C@H](C5CC5)[C@H](C)C(=O)O)cc4O3)c(CN3CCC[C@@H]3C)c2)ccn1` (single isomer, unassigned) [Example 118a], for which the EC50 turned out to be 0.6 nM.

As for `COc1cc(-c2ccc(C3CCc4ccc([C@H](C5CC5)[C@H](C)C(=O)O)c(F)c4O3)cc2CN2CCCCC2)c(F)cn1` (single isomer, unassigned) [Example 200], the midpoint of the response, the EC50, lay at 1.5 nM. Compared with the last compound, the EC50 is about 2.5-fold higher.

As to `CCN(CC)Cc1cc(C2CCc3ccc([C@H](C4CC4)[C@H](C)C(=O)O)cc3O2)c(F)cc1-c1ccnc(OC)c1` (single isomer, unassigned) [Example 182], the EC50 stood at 16 nM. This EC50 lies about 11-fold higher than the previous one.

As to `COc1cc(-c2ccc(C3CCc4ccc([C@H](C5CC5)[C@H](C)C(=O)O)cc4O3)c(CN(C(C)C)C(C)C)c2)ccn1` (single isomer, unassigned) [Example 115b], the EC50 came out at 5.3 nM.

`CCN(C(C)C)C(C)c1cc(C2CCc3ccc([C@H](C4CC4)[C@H](C)C(=O)O)cc3O2)ccc1-c1ccnc(OC)c1` (single isomer, unassigned) [Example 248] yielded an EC50 of 11.5 nM. This EC50 is about 2.2-fold higher than that of the compound before.

The compound `CCN(C)Cc1cc(C2CCc3ccc([C@H](C4CC4)[C@H](C)C(=O)O)cc3O2)ccc1-c1cc(OC)ncc1C#N` (single isomer, unassigned) [Example 195] showed an EC50 of 12 nM.

On to `COc1cc(-c2ccc(C3CCc4ccc([C@H](C5CC5)[C@H](C)C(=O)O)c(F)c4O3)cc2CN2CCCCC23CC3)c(F)cn1` (single isomer, unassigned) [Example 202], for which the EC50 was found to be 0.16 nM.

Turning to `COc1cc(-c2ccc(C3CCc4ccc([C@H](C5CCC5)[C@H](C)C(=O)O)cc4O3)cc2CN2CCCC2C)c(F)cn1` (stereo partly drawn) [Example 103], the EC50 was determined as 0.09 nM.

Turning to `COc1cc(-c2ccc(C3CCc4ccc([C@H](C5CC5)[C@@H](C)C(=O)O)cc4O3)cc2CN(C(C)C)C(C)C)ccn1` (stereo partly drawn) [Example 285], the EC50 came to 4 nM.

For `COc1cc(-c2ccc(C3CCc4ccc([C@H](C5CC5)[C@H](C)C(=O)O)cc4O3)cc2CN2CCC3(CC3)C2)c(F)cn1` (stereo partly drawn) [Example 263], the EC50 was 0.8 nM.

Compound `COc1cc(-c2ccc([C@H]3CCc4ccc([C@H](C5CC5)[C@H](C)C(=O)O)cc4O3)cc2CN2CCCCC23CC3)ccn1` [Example 176] yielded an EC50 of 0.2 nM.

Consider `COc1cc(-c2ccc(C3CCc4ccc([C@H](C5CC5)[C@H](C)C(=O)O)cc4O3)cc2CN2CCCCC23CCC3)c(F)cn1` (stereo partly drawn) [Example 262], for which the EC50 stood at 0.2 nM.
